Laboratory results reported in paper PMC6353801, “Enhanced Anti-diabetic Effect of Berberine Combined With Timosaponin B2 in Goto-Kakizaki Rats, Associated With Increased Variety and Exposure of Effective Substances Through Intestinal Absorption” (Frontiers in Pharmacology, 2019).

How the values were obtained:
[1] = usually in various species; ref Liu et al., 2016; cited from earlier work
GK rats [2] = assay: NFBG and FBG levels in GK rats, 6-week oral treatment; type: in vivo, rat; details: during 6-week treatment, TB-2 33.3, BBR 66.7, TB-2+BBR 100, metformin 200 mg/kg/day
Method: (§1) Four-week-old male GK rats were fed a high-fat diet, and age-matched non-diabetic Wistar rats were fed standard chow as the control group. Under these dietary conditions, blood glucose was estimated each week for 7 weeks in 12-h fasted rats using a portable glucometer (One Touch Sure Step Meter, Johnson & Johnson, United States) by drawing the blood from the tail vein. GK rats with fasting blood glucose levels (FBG) above 16.7 mM were considered as diabetic rats, and only uniformly diabetic rats were used in this study. […] All the drugs were suspended in 0.5% carboxymethylcellulose sodium (CMC-Na) solution for oral gavage (10 ml/kg) once per day (at 9:00) for 6 weeks. Simultaneously, the Wistar and vehicle groups received vehicle over the treatment period. Food consumption and body weight were measured every week throughout the experimental periods. Non-fasting blood glucose (NFBG) levels were determined by collecting blood samples from the tail vein (at 9:00), and FBG levels were determined after a 6-h fast (at 15:00) on days 0, 7, 14, 21, and 42. On day 28, an oral glucose tolerance test (OGTT) was performed after an overnight fast. […] On day 42, the rats were anesthetized with urethane (1.4 g/kg, dissolved in saline) after an overnight fast and were sacrificed to collect the liver, kidney, heart, and spleen. The organs were weighed after washing with saline and drying to calculate the organ coefficient, namely, the ratio between the weight of organs and the body in each rat.

[3] = Body weight, food intake, organ coefficients and side effects in GK rats; type: in vivo, rat
Method: as §1

[4] = Transport in Caco-2 cells; type: in vitro ADME, human; details: human
Method: The culture medium was changed every other day for the first 7 days and then daily for the next 14 days. […] Prior to the transport experiments, the cell monolayers were washed three times with HBSS at 37°C. […] At the same time, the corresponding opposite side was filled with medium as the receiving chamber. After incubation for 30, 60, 90, and 120 min, 250-μl aliquots of the medium was taken from the receiving chamber at each time point, and prepared for analysis by HPLC–MS/MS. […] where (ΔQ/Δt) is the linear slope of the drug concentration in the receptor chamber over time, A represents the surface area of the membrane (1.12 cm^2), and C0 is the initial concentration of drug in the donor chamber. The efflux ratio (ERpermeability) for BL to AP and AP to BL transport was defined by the following equation: […] where Papp (BL–AP) and Papp (AP–BL) are the apparent permeability of drugs from the basolateral (BL) to apical (AP) and AP to BL sides of the monolayer, respectively.

GK rats [5] = assay: Oral glucose tolerance test (OGTT) in GK rats on day 28; type: in vivo, rat; details: after 4 weeks of treatment, glucose 2 g/kg oral
Method: as §1

[6] = Caco-2, no inhibitor, digoxin 10 μM, TB-2 5 μM, BBR 10 μM, n = 3

## COc1ccc2cc3[n+](cc2c1OC)CCc1cc2c(cc1-3)OCO2 [BBR, berberine]
[1]
  bioavailability: < 1%
GK rats [2]
  FBG levels compared with the vehicle group (in words): no significant differences
  NFBG levels compared with the vehicle group (in words): no significant differences
[3]; 6-week oral treatment
  effect on body weight or food consumption vs vehicle: no effect
[3]; day 42
  effect on organ coefficients (liver and kidney) vs vehicle: limited
[4]; Caco-2, Caco-2, no inhibitor, Papp (BL−AP)/Papp (AP−BL), read-out: ERpermeability (efflux ratio)
  efflux ratio at 120 min: 71.4
[4]; [6]
  Papp A→B at 120 min: 0.038 ± 0.011 ×10⁻⁶ cm/s
  Papp B→A at 120 min: 2.71 ± 0.355 ×10⁻⁶ cm/s
GK rats [5]
  decrease in the AUC of blood glucose in OGTT vs vehicle: didn’t significantly decrease
  decrease of blood glucose levels in OGTT at 30 min vs vehicle: 24%
